Test results reported in ChEMBL document CHEMBL3885881, “DrugMatrix”.

Species on record: Rattus norvegicus
Assay: DrugMatrix - Regimen: Daily Repeat
Assay type: toxicity, organism-based, Sprague-Dawley
Design: regimen Daily Repeat, gender Male, age 6-8 weeks
Settings: in vivo, po, route oral GAVAGE, vehicle 100 % SALINE; for ABSOLUTE BASOPHIL / ABSOLUTE EOSINOPHIL / ABSOLUTE LYMPHOCYTE / ABSOLUTE MONOCYTE / ABSOLUTE SEGMENTED NEUTROPHIL / BASOPHIL / EOSINOPHIL / ERYTHROCYTE COUNT / HEMATOCRIT / HEMOGLOBIN / LEUKOCYTE COUNT / MEAN CORPUSCULAR HEMOGLOBIN / MEAN CORPUSCULAR HEMOGLOBIN CONCENTRATION / MEAN CORPUSCULAR VOLUME / MONOCYTE / NEUTROPHIL / NUCLEATED RED BLOOD CELLS / PLATELET COUNT: tissue Blood; for ALANINE AMINOTRANSFERASE / ALBUMIN / ALKALINE PHOSPHATASE / ASPARTATE AMINOTRANSFERASE / BLOOD UREA NITROGEN / CARBON DIOXIDE / CHLORIDE / CHOLESTEROL / CREATINE PHOSPHOKINASE / CREATININE / GLUCOSE / LACTATE DEHYDROGENASE / LIPASE / PHOSPHORUS / POTASSIUM / SODIUM / TOTAL BILIRUBIN / TOTAL PROTEIN / URIC ACID: tissue Plasma
[1] = 0 mg/kg, 72 h, dose level Control, time 3 day
[2] = 0 mg/kg, 120 h, dose level Control, time 5 day
[3] = 40 mg/kg, 72 h, dose level Low, time 3 day

How did the “ABSOLUTE BASOPHIL” value [1] turn out when `Oc1ccccc1O` [CATECHOL] was run?
The value was 0 CELLS/uL.

And the “ABSOLUTE EOSINOPHIL” value [1]?
The value was 65.67 CELLS/uL.

And the “ABSOLUTE LYMPHOCYTE” value [1]?
Its value is 17283.5 CELLS/uL.

And the “ABSOLUTE MONOCYTE” value [1]?
Its value is 0 CELLS/uL.

And the “ABSOLUTE SEGMENTED NEUTROPHIL” value [1]?
The value was 1284.17 CELLS/uL.

What about the BASOPHIL [1] of the same compound?
Its BASOPHIL is 0%.

What about the EOSINOPHIL [1] of the same compound?
The EOSINOPHIL was 0.33%.

And the “ERYTHROCYTE COUNT” value [1]?
The value was 5.46 x10E6/uL.

And the HEMATOCRIT [1]?
Its HEMATOCRIT is 34.28%.

What about the HEMOGLOBIN [1] of the same compound?
Its HEMOGLOBIN is 13.78 G/DL.

What about the “LEUKOCYTE COUNT” value [1] of the same compound?
The value was 18.63 x10E3/uL.

And the “MEAN CORPUSCULAR HEMOGLOBIN” value [1]?
Its value is 25.3 pg.

What about the “MEAN CORPUSCULAR HEMOGLOBIN CONCENTRATION” value [1] of the same compound?
The value was 40.22 G/DL.

What about the “MEAN CORPUSCULAR VOLUME” value [1] of the same compound?
The value was 62.87 fL.

And the MONOCYTE [1]?
The MONOCYTE was 0%.

And the NEUTROPHIL [1]?
The NEUTROPHIL was 7%.

What about the “NUCLEATED RED BLOOD CELLS” value [1] of the same compound?
The value was 0 /100WBC.

What about the “PLATELET COUNT” value [1] of the same compound?
Its value is 1244.83 x10E3/uL.

What about the “ALANINE AMINOTRANSFERASE” value [1] of the same compound?
Its value is 52.83 u/L.

And the ALBUMIN [1]?
The ALBUMIN was 4 G/DL.

What about the “ALKALINE PHOSPHATASE” value [1] of the same compound?
Its value is 327.67 u/L.

What about the “ASPARTATE AMINOTRANSFERASE” value [1] of the same compound?
The value was 78.83 u/L.

And the “BLOOD UREA NITROGEN” value [1]?
The value was 13.83 mg/dL.

And the “CARBON DIOXIDE” value [1]?
Its value is 26.67 mmol/L.

And the CHLORIDE [1]?
The CHLORIDE was 99.67 MEQ/L.

And the CHOLESTEROL [1]?
Its CHOLESTEROL is 69 mg/dL.

What about the “CREATINE PHOSPHOKINASE” value [1] of the same compound?
The value was 350.17 u/L.

And the CREATININE [1]?
The CREATININE was 0.21 mg/dL.

What about the GLUCOSE [1] of the same compound?
The GLUCOSE was 173.83 mg/dL.

And the “LACTATE DEHYDROGENASE” value [1]?
The value was 168.33 u/L.

What about the LIPASE [1] of the same compound?
The LIPASE was 11 u/L.

What about the PHOSPHORUS [1] of the same compound?
The PHOSPHORUS was 12.7 mg/dL.

And the POTASSIUM [1]?
The POTASSIUM was 6.88 MEQ/L.

And the SODIUM [1]?
The SODIUM was 141.68 MEQ/L.

What about the “TOTAL BILIRUBIN” value [1] of the same compound?
Its value is 0.22 mg/dL.

What about the “TOTAL PROTEIN” value [1] of the same compound?
The value was 6.02 G/DL.

And the “URIC ACID” value [1]?
Its value is 1.9 mg/dL.

What about the “ABSOLUTE BASOPHIL” value [2] of the same compound?
The value was 0 CELLS/uL.

And the “ABSOLUTE EOSINOPHIL” value [2]?
Its value is 14.83 CELLS/uL.

What about the “ABSOLUTE LYMPHOCYTE” value [2] of the same compound?
Its value is 12880 CELLS/uL.

What about the “ABSOLUTE MONOCYTE” value [2] of the same compound?
The value was 90.67 CELLS/uL.

And the “ABSOLUTE SEGMENTED NEUTROPHIL” value [2]?
The value was 864.5 CELLS/uL.

What about the BASOPHIL [2] of the same compound?
The BASOPHIL was 0%.

And the EOSINOPHIL [2]?
Its EOSINOPHIL is 0.17%.

And the “ERYTHROCYTE COUNT” value [2]?
The value was 5.83 x10E6/uL.

What about the HEMATOCRIT [2] of the same compound?
Its HEMATOCRIT is 35.87%.

What about the HEMOGLOBIN [2] of the same compound?
Its HEMOGLOBIN is 14 G/DL.

What about the “LEUKOCYTE COUNT” value [2] of the same compound?
The value was 13.85 x10E3/uL.

What about the “MEAN CORPUSCULAR HEMOGLOBIN” value [2] of the same compound?
Its value is 24.03 pg.

And the “MEAN CORPUSCULAR HEMOGLOBIN CONCENTRATION” value [2]?
Its value is 39.03 G/DL.

What about the “MEAN CORPUSCULAR VOLUME” value [2] of the same compound?
Its value is 61.53 fL.

What about the MONOCYTE [2] of the same compound?
The MONOCYTE was 0.67%.

What about the NEUTROPHIL [2] of the same compound?
The NEUTROPHIL was 6.67%.

What about the “NUCLEATED RED BLOOD CELLS” value [2] of the same compound?
Its value is 0 /100WBC.

What about the “PLATELET COUNT” value [2] of the same compound?
Its value is 1041.83 x10E3/uL.

And the “ALANINE AMINOTRANSFERASE” value [2]?
Its value is 56 u/L.

And the ALBUMIN [2]?
Its ALBUMIN is 4.47 G/DL.

What about the “ALKALINE PHOSPHATASE” value [2] of the same compound?
The value was 319 u/L.

And the “ASPARTATE AMINOTRANSFERASE” value [2]?
Its value is 89.17 u/L.

What about the “BLOOD UREA NITROGEN” value [2] of the same compound?
The value was 15.2 mg/dL.

What about the “CARBON DIOXIDE” value [2] of the same compound?
The value was 24 mmol/L.

What about the CHLORIDE [2] of the same compound?
The CHLORIDE was 104.4 MEQ/L.

What about the CHOLESTEROL [2] of the same compound?
The CHOLESTEROL was 69.5 mg/dL.

What about the “CREATINE PHOSPHOKINASE” value [2] of the same compound?
The value was 295.83 u/L.

And the CREATININE [2]?
Its CREATININE is 0.21 mg/dL.

And the GLUCOSE [2]?
The GLUCOSE was 124.33 mg/dL.

And the “LACTATE DEHYDROGENASE” value [2]?
Its value is 325.5 u/L.

And the LIPASE [2]?
Its LIPASE is 14.67 u/L.

And the PHOSPHORUS [2]?
The PHOSPHORUS was 11.45 mg/dL.

What about the POTASSIUM [2] of the same compound?
Its POTASSIUM is 6.74 MEQ/L.

What about the SODIUM [2] of the same compound?
Its SODIUM is 151.4 MEQ/L.

What about the “TOTAL BILIRUBIN” value [2] of the same compound?
Its value is 0.23 mg/dL.

And the “TOTAL PROTEIN” value [2]?
The value was 6.45 G/DL.

And the “URIC ACID” value [2]?
The value was 1.18 mg/dL.

What about the “ABSOLUTE BASOPHIL” value [3] of the same compound?
The value was 0 CELLS/uL.

And the “ABSOLUTE EOSINOPHIL” value [3]?
Its value is 0 CELLS/uL.

What about the “ABSOLUTE LYMPHOCYTE” value [3] of the same compound?
The value was 14994 CELLS/uL.

And the “ABSOLUTE MONOCYTE” value [3]?
Its value is 0 CELLS/uL.

And the “ABSOLUTE SEGMENTED NEUTROPHIL” value [3]?
The value was 739.33 CELLS/uL.

And the BASOPHIL [3]?
Its BASOPHIL is 0%.

What about the EOSINOPHIL [3] of the same compound?
Its EOSINOPHIL is 0%.

And the “ERYTHROCYTE COUNT” value [3]?
The value was 5.48 x10E6/uL.

What about the HEMATOCRIT [3] of the same compound?
Its HEMATOCRIT is 33.5%.

And the HEMOGLOBIN [3]?
The HEMOGLOBIN was 13.33 G/DL.

And the “LEUKOCYTE COUNT” value [3]?
The value was 15.73 x10E3/uL.

And the “MEAN CORPUSCULAR HEMOGLOBIN” value [3]?
Its value is 24.37 pg.

What about the “MEAN CORPUSCULAR HEMOGLOBIN CONCENTRATION” value [3] of the same compound?
The value was 39.87 G/DL.

What about the “MEAN CORPUSCULAR VOLUME” value [3] of the same compound?
The value was 61.1 fL.

What about the MONOCYTE [3] of the same compound?
Its MONOCYTE is 0%.

And the NEUTROPHIL [3]?
The NEUTROPHIL was 4.67%.

What about the “NUCLEATED RED BLOOD CELLS” value [3] of the same compound?
Its value is 0 /100WBC.

What about the “PLATELET COUNT” value [3] of the same compound?
Its value is 1095.33 x10E3/uL.

And the “ALANINE AMINOTRANSFERASE” value [3]?
Its value is 43.67 u/L.

And the ALBUMIN [3]?
Its ALBUMIN is 4.2 G/DL.

And the “ALKALINE PHOSPHATASE” value [3]?
The value was 287 u/L.

And the “ASPARTATE AMINOTRANSFERASE” value [3]?
Its value is 70.67 u/L.

What about the “BLOOD UREA NITROGEN” value [3] of the same compound?
Its value is 13.33 mg/dL.

What about the “CARBON DIOXIDE” value [3] of the same compound?
The value was 23.67 mmol/L.

And the CHLORIDE [3]?
Its CHLORIDE is 101 MEQ/L.

And the CHOLESTEROL [3]?
Its CHOLESTEROL is 74 mg/dL.

What about the “CREATINE PHOSPHOKINASE” value [3] of the same compound?
Its value is 350.33 u/L.

What about the CREATININE [3] of the same compound?
Its CREATININE is 0.22 mg/dL.

What about the GLUCOSE [3] of the same compound?
The GLUCOSE was 176.67 mg/dL.

What about the “LACTATE DEHYDROGENASE” value [3] of the same compound?
Its value is 113.33 u/L.

What about the LIPASE [3] of the same compound?
Its LIPASE is 10.33 u/L.

And the PHOSPHORUS [3]?
Its PHOSPHORUS is 11.93 mg/dL.

And the POTASSIUM [3]?
The POTASSIUM was 6.1 MEQ/L.

What about the SODIUM [3] of the same compound?
Its SODIUM is 140.57 MEQ/L.

What about the “TOTAL BILIRUBIN” value [3] of the same compound?
Its value is 0.17 mg/dL.

What about the “TOTAL PROTEIN” value [3] of the same compound?
Its value is 6.13 G/DL.

And the “URIC ACID” value [3]?
The value was 2 mg/dL.
